Measured values reported in US6903104B2, “Indol-3-YL-2-oxoacetamide compounds and methods of use thereof” (National Health Research Institutes, priority 2001, dated 2005).

What was measured:
[1] = tested on: gastric HR cancer cells; test: In vitro cytotoxicity MTS assay, gastric HR; assay type: cell-based, human; conditions: 72 hours
Experimental: (§1) A panel of human cancer cells, gastric NUGC3 and HR, nasopharyngeal HONE1, hepatocellular HEP G2 and HA-22T, colorectal DLD1, lung A549, prostate PC3, breast MCF7 and its adriamycin-resistant MCF7/ADR subline, uterus MES-SA and its adriamycin-resistant MES-SA/Dx5 subline, is purchased from Food Industry Research and Development Institute, Hsinchu, Taiwan R.O.C. or American Type Culture Collection, Manassas, Va. U.S.A., are used in in vitro cytotoxicity assays. The human cells are seeded at a cell density of 3000 or 4500 cells/100 μl/well in 96-well flat-bottom plates and incubated for 24 hours at 37° C. in a 5% CO2 incubator. The testing compounds are dissolved in dimethyl sulfoxide (DMSO) and further diluted into the culture medium for treatments of human cancer cells in vitro. The drug-containing media has a final DMSO concentration of ≦0.3%. The compounds of this invention are prepared in culture media for testing at a range of concentrations from 10, 1, 0.1, 0.01 to 0.001 μM. Each compound solution is (200 μl/well in duplicate) in the cell plates and is treated for 72 hours at 37° C., 5% CO2 in an incubator. Actinomycin D at 5 μM and 0.3% DMSO are used as the positive and vehicle controls, respectively. A colorimetric assay using 3-(4,5-dimethylthiazol-2-yl)-5-(3-carboxymethoxyphenyl)-2-(4-sulfophenyl)-2H-tetrazolium (MTS) and phenazine methosulfate (PMS) is used to determine the potency of the compounds. This assay measures cell viability based on the cellular activity in conversion of a tetrazolium salt into a colored soluble formazan product. The optical density (OD) values are measured at 490 nm with a 1420 multilabel counter VICTOR® from Wallac, Turku, Finland. All of the measured values are subtracted with that of the blank control wells without cells before further calculations. The efficacy data are expressed as a percentage normalized to the vehicle controls as calculated in the following formulae. Inhibitory potency (% of vehicle control)=[(OD490compound−OD490blank)/(OD490vehicle−OD490blank)]×100%. The concentration (IC50) of a test compound that inhibits 50% of the cellular activity is determined.

[2] = tested on: rat aorta endothelial cells; test: Rat aorta tube formation assay (angiogenesis inhibition); assay type: cell-based, Spraque-Dawley rats; set-up: key: Noninhibitors are indicated by the symbol (−), meaning that the extent of endothelial cell growth is essentially at the same level as that of the control; The most potent inhibitors receive a score of (+++++), indicating essentially no measurable endothelial cell growth; conditions: 5 days
Experimental: The procedures are modified from previous reports (Burbridge and West 2001; Bauer et al. 2000; Nicosai and Ottinetti 1990a) and described as follows. Male Spraque-Dawley rats of 6-8 weeks old are purchased from the National Laboratory Animal Breeding and Research Center (Taipei, Taiwan). The animals are anesthetized with urethane (2 g/kg, intraperitoneal) and the thoracic aortas are quickly harvested in a laminar flow hood. The aortas are rinsed with ice-cold normal saline with 10 μg/ml gentamicin and the attached fibroadipose tissues are removed using micro-dissection scissors. The aortas are cross-sectioned into rings of 1 mm in thickness. A mixture of Matrigel®, purchased from BD Biosciences, solution and the EBM-II medium, purchased from BioWhittaker Inc., (1:1) with 2% FBS, 0.25 mg/ml, amphotericin B and 10 μg/ml gentamicin is prepared and added at 100 μl to each well of a 48-well plate. The mixture is allowed to gel at 37° C. Aorta rings are then placed onto the gelled matrix and embedded in an additional 150 μl per well of the mixture solution and allowed to gel at 37° C. The aorta rings are then covered with 125 μl of the EGM-II medium and incubated overnight in humidified incubator with 5% CO2/95% air at 37° C. After removal of the EGM-II from the established aorta cultures, the compound-containing media are applied at 300 μl per well to the cultures and then incubated in 5% CO2/95% air at 37° C. for 5 days. The cultures are then subject to the 3-[4,5-dimethylthiazol-2-yl]-2,5 diphenyl-2H-tetrazolium bromide (MTT) or 3-(4,5-dimethylthiazol-2-yl)-5-(3-carbomethoxyphenyl)-2H-tetrazolium (MTS) assay and OD490 nm values measured. The testing compounds are dissolved in dimethyl sulfoxide (DMSO) and prepared in EBM-II media with at a final concentration of DMSO less than 0.1%.
The capillary-like, tube structure of the outgrown rat aorta endothelial cells is easily visualized by MTT staining. The medium on top of the matrix is removed from the established aorta ring cultures. MTT solution of 5 mg/ml in saline is added to the cultures at 100 μl/well and the cultures are incubated in a CO2 incubator at 37° C. for 24 hr. The stained cultures are then examined under a microscope DMIRB from Leica and photos taken with a digital camera.
Inhibition activity is also assessed in the following manner. The reductive reaction of MTS initiated by the viable cellular mitochondrial activity is used as a basis for the measurement of cell viability (Cory et al. 1991; Gieni et al. 1995). To the rat aorta ring cultures 300 μl of a solution containing 100 μg MTS and 1 μg, phenazine methosulfate is added per well and incubated in 5% CO2/95% air at 37° C. for 24 hr. During the incubation, MTS is converted to formazan product. At the end of incubation, the solution overlaying the gel is well-mixed and 100 μl aliquots are transferred into a 96-well plate for measurement of OD490 nm with a spectrophotometer VICTOR™-II from Wallac Oy.
The compounds listed in Table 3 are screened for angiogenesis inhibition. The control compound, ASTA, is D-24851, N-[pyridin-4-yl]-[1-(4-chlorobenzyl)-indol-3-yl]-glyoxylic acid amide. Noninhibitors are indicated by the symbol (−), meaning that the extent of endothelial cell growth is essentially at the same level as that of the control.

[3] = tested on: hepatocellular HEP G2 cancer cells; test: In vitro cytotoxicity MTS assay, hepatocellular HEP G2; assay type: cell-based, human; conditions: 72 hours
Experimental: as §1

[4] = tested on: colorectal DLD1 cancer cells; test: In vitro cytotoxicity MTS assay, colorectal DLD1; assay type: cell-based, human; conditions: 72 hours
Experimental: as §1

[5] = tested on: nasopharyngeal HONE1 cancer cells; test: In vitro cytotoxicity MTS assay, nasopharyngeal HONE1; assay type: cell-based, human; conditions: 72 hours
Experimental: as §1

[6] = tested on: gastric NUGC3 cancer cells; test: In vitro cytotoxicity MTS assay, gastric NUGC3; assay type: cell-based, human; conditions: 72 hours
Experimental: as §1

[7] = tested on: adriamycin-resistant MES-SA/Dx5 subline; test: In vitro cytotoxicity MTS assay, adriamycin-resistant MES-SA/Dx5; assay type: cell-based, human; conditions: 72 hours
Experimental: as §1

[8] = tested on: adriamycin-resistant MCF7/ADR subline; test: In vitro cytotoxicity MTS assay, adriamycin-resistant MCF7/ADR; assay type: cell-based, human; conditions: 72 hours
Experimental: as §1

[9] = tested on: uterus MES-SA cancer cells; test: In vitro cytotoxicity MTS assay, uterus MES-SA; assay type: cell-based, human; conditions: 72 hours
Experimental: as §1

[10] = tested on: prostate PC3 cancer cells; test: In vitro cytotoxicity MTS assay, prostate PC3; assay type: cell-based, human; conditions: 72 hours
Experimental: as §1

[11] = tested on: lung A549 cancer cells; test: In vitro cytotoxicity MTS assay, lung A549; assay type: cell-based, human; conditions: 72 hours
Experimental: as §1

[12] = tested on: hepatocellular HA-22T cancer cells; test: In vitro cytotoxicity MTS assay, hepatocellular HA-22T; assay type: cell-based, human; conditions: 72 hours
Experimental: as §1

[13] = tested on: breast MCF7 cancer cells; test: In vitro cytotoxicity MTS assay, breast MCF7; assay type: cell-based, human; conditions: 72 hours
Experimental: as §1

| Compound | IC50 [1] | Inhibition Score ([2]; final conc. 0.3 μg/ml) | IC50 [3] | IC50 [4] | IC50 [5] | IC50 [6] | IC50 [7] | IC50 [8] | IC50 [9] | IC50 [10] | IC50 [11] | IC50 [12] | IC50 [13] | Inhibition Score ([2]; final conc. 1 μg/ml) |
| --- | --- | --- | --- | --- | --- | --- | --- | --- | --- | --- | --- | --- | --- | --- |
| Cc1cc(NC(=O)C(=O)c2cn(Cc3ccno3)c3ccccc23)sn1 [Compound 54] | 64 nM | +++++ | > 10000 nM | 397 nM | 17 nM | 27 nM | 333 nM | 5410 nM | 268 nM | 725 nM | 1670 nM | 382 nM | 5020 nM |  |
| O=C(Nc1cc(-c2ccc(Cl)cc2)no1)C(=O)c1cn(Cc2ccc(Cl)cc2)c2ccccc12 [Compound 38] | 2980 nM | − | 3460 nM | 3720 nM | 487 nM | 2010 nM |  | 4080 nM |  |  |  | 2240 nM | 4260 nM |  |
| O=C(Nc1ccc2ncccc2c1)C(=O)c1cn(Cc2ccco2)c2ccccc12 [Compound 42] | 453 nM | +++++ | 3980 nM | 799 nM | 296 nM | 634 nM |  | 527 nM |  |  |  | 345 nM | 928 nM |  |
| Cc1cc(NC(=O)C(=O)c2cn(Cc3cccs3)c3ccccc23)sn1 [Compound 44] |  |  |  |  |  |  |  |  |  |  |  |  |  | +++++ |
| Cc1cc(NC(=O)C(=O)c2cn(Cc3ccsc3)c3ccccc23)sn1 [Compound 45] | 316 nM | +++++ | 1690 nM | 593 nM | 48 nM | 465 nM | 406 nM | 2350 nM | 306 nM | 824 nM | 611 nM | 2400 nM | 611 nM |  |
| O=C(Nc1ccc2ncccc2c1)C(=O)c1cn(Cc2cscn2)c2ccccc12 [Compound 77] | 721 nM | +++++ | > 10000 nM | 1500 nM | 380 nM | 458 nM |  | 595 nM |  |  |  | 469 nM | 1320 nM |  |
| Cc1cc(Cn2cc(C(=O)C(=O)Nc3ccc4ncccc4c3)c3ccccc32)on1 [Compound 59] | 294 nM | +++++ | 613 nM | 658 nM | 34 nM | 262 nM |  | 300 nM |  |  |  | 115 nM | 678 nM |  |
| Cc1cc(NC(=O)C(=O)c2cn(Cc3cc(C(C)C)no3)c3ccccc23)sn1 [Compound 65] | 324 nM | +++++ | 720 nM | 609 nM | 50 nM | 242 nM |  | 710 nM |  |  |  | 302 nM | 700 nM |  |
| N#Cc1ccc(Cn2cc(C(=O)C(=O)Nc3ccc(I)cc3)c3ccccc32)cc1 [Compound 13] | 396 nM | +++++ | 6310 nM | 846 nM | 98 nM | 431 nM |  | 597 nM |  |  |  | 356 nM | 577 nM |  |
| COc1ccc(NC(=O)C(=O)c2cn(Cc3ccccc3C#N)c3ccccc23)cc1 [Compound 32] | 2250 nM | +++++ | 4770 nM | 5650 nM | 928 nM | 4850 nM |  | 5290 nM |  |  |  | 1910 nM | 5180 nM |  |
| Cc1cc(NC(=O)C(=O)c2cn(Cc3ccco3)c3ccccc23)sn1 [Compound 40] | 295 nM | +++++ | 7720 nM | 981 nM | 56 nM | 395 nM | 263 nM | 1170 nM | 235 nM | 398 nM | 746 nM | 1260 nM | 1160 nM |  |
| CCc1cc(Cn2cc(C(=O)C(=O)Nc3cc(C)ns3)c3ccccc32)on1 [Compound 63] | 78 nM | +++++ | 2470 nM | 705 nM | 35 nM | 118 nM | 330 nM | 5070 nM | 312 nM | 636 nM | 1000 nM | 559 nM | 747 nM |  |
| N#Cc1ccc(Cn2cc(C(=O)C(=O)Nc3ccc4ncccc4c3)c3ccccc32)cc1 [Compound 3] | 266 nM | +++++ | 383 nM | 665 nM | 174 nM | 279 nM | 6090 nM | 665 nM | 4710 nM | 9630 nM | 6400 nM | 510 nM | 640 nM |  |
| Cc1cc(NC(=O)C(=O)c2cn(Cc3ccc(C#N)cc3)c3ccc(Br)cc23)sn1 [Compound 24] | 5460 nM | − | 3590 nM | 5800 nM | 401 nM | 1720 nM |  | 2550 nM |  |  |  | 2840 nM | 7650 nM |  |
